Data taken from ChEMBL document CHEMBL3046479, “Preparation and antimicrobial activity evaluation of some new bi- and triheterocyclic azoles” (2013).
In brackets after ≈: the same amount, converted by molar mass. Activity calls are given as the source filed them. The calls are words filed in the database; no cut-off is given here.

What was measured:
Assay type in all cases: functional
[1] = test system: Listeria monocytogenes; experiment: Antimicrobial activity against Listeria monocytogenes ATCC 43251 assessed as growth inhibition after 18-24 hr by broth double microdilution method
[2] = test system: Escherichia coli; experiment: Antimicrobial activity against Escherichia coli ATCC 35218 assessed as growth inhibition after 18-24 hr by broth double microdilution method
[3] = test system: Mycolicibacterium smegmatis; experiment: Antimicrobial activity against Mycobacterium smegmatis ATCC 607 assessed as growth inhibition after 48-72 hr by broth double microdilution method
[4] = test system: Enterococcus faecalis; experiment: Antimicrobial activity against Enterococcus faecalis ATCC 29212 assessed as growth inhibition after 18-24 hr by broth double microdilution method
[5] = test system: Pseudomonas aeruginosa; experiment: Antimicrobial activity against Pseudomonas aeruginosa ATCC 10145 assessed as growth inhibition after 18-24 hr by broth double microdilution method
[6] = test system: Yersinia pseudotuberculosis; experiment: Antimicrobial activity against Yersinia pseudotuberculosis ATCC 911 assessed as growth inhibition after 18-24 hr by broth double microdilution method
[7] = test system: Candida albicans; experiment: Antimicrobial activity against Candida albicans ATCC 60193 assessed as growth inhibition after 18-24 hr by broth double microdilution method
[8] = test system: Saccharomyces cerevisiae; experiment: Antimicrobial activity against Saccharomyces cerevisiae RSKK 251 assessed as growth inhibition after 18-24 hr by broth double microdilution method
[9] = test system: Staphylococcus aureus; experiment: Antimicrobial activity against Staphylococcus aureus ATCC 25923 assessed as growth inhibition after 18-24 hr by broth double microdilution method
[10] = test system: Bacillus cereus; experiment: Antimicrobial activity against Bacillus cereus 709 Roma assessed as growth inhibition after 18-24 hr by broth double microdilution method

| SMILES | MIC [1] | MIC [2] | MIC [3] | MIC [4] | MIC [5] | MIC [6] | MIC [7] | MIC [8] | MIC [9] | MIC [10] |
| --- | --- | --- | --- | --- | --- | --- | --- | --- | --- | --- |
| Cc1nn(CC(=O)N/N=c2\sc(-c3ccc(Cl)cc3)cn2-c2ccccc2)c(=O)n1CCCn1ccnc1 | inactive | inactive | 39.9 µg/mL (≈ 72.7 µM) | inactive | inactive | inactive | 250 µg/mL (≈ 455 µM) | 1000 µg/mL (≈ 1820 µM) | inactive |  |
| Cc1nn(-c2ccc(/N=C/c3ccc(Br)cc3)cc2F)c(=O)n1CCCn1ccnc1 | inactive | inactive | 0.24 µg/mL (≈ 0.497 µM) | inactive | inactive | inactive | inactive | inactive | inactive | inactive |
| Cc1nn(CC(=O)N/N=C/c2ccccc2O)c(=O)n1/N=C/c1ccncc1 | inactive | inactive | inactive | inactive | inactive | inactive | 250 µg/mL (≈ 659 µM) | inactive | inactive | inactive |
| Cc1nn(CNCCN2CCNCC2)c(=O)n1CCCn1ccnc1 | inactive | 1.2 µg/mL (≈ 3.44 µM) | 500 µg/mL (≈ 1430 µM) | inactive | inactive | 62.5 µg/mL (≈ 179 µM) | 125 µg/mL (≈ 359 µM) |  | 125 µg/mL (≈ 359 µM) | inactive |
| CCOC(=O)Cn1nc(C)n(/N=C/c2ccncc2)c1=O | inactive | inactive | inactive | inactive | inactive | inactive | 250 µg/mL (≈ 864 µM) | inactive | inactive | inactive |
| Cc1nn(CNC2C(=O)N3C2SC(C)(C)C3C(=O)O)c(=O)n1CCCn1ccnc1 (stereo not drawn) | inactive | inactive | 31.3 µg/mL (≈ 71.9 µM) | inactive | 125 µg/mL (≈ 287 µM) | 125 µg/mL (≈ 287 µM) | inactive | inactive | 62.5 µg/mL (≈ 144 µM) | 125 µg/mL (≈ 287 µM) |
| CN[C@@H]1[C@H](O[C@H]2[C@H](O[C@H]3[C@H](O)[C@@H](O)[C@H](N=C(N)N)[C@@H](O)[C@@H]3N=C(N)N)O[C@@H](C)[C@]2(O)C=O)O[C@@H](CO)[C@H](O)[C@H]1O [STREPTOMYCIN] |  |  | 4 µg/mL (≈ 6.88 µM) |  |  |  |  |  |  |  |
| Cc1nn(CN2CCOCC2)c(=O)n1CCCn1ccnc1 | 0.24 µg/mL (≈ 0.783 µM) | 0.97 µg/mL (≈ 3.17 µM) | 15.6 µg/mL (≈ 50.9 µM) | 0.97 µg/mL (≈ 3.17 µM) | 0.48 µg/mL (≈ 1.57 µM) | 0.48 µg/mL (≈ 1.57 µM) | 31.2 µg/mL (≈ 102 µM) | 7.81 µg/mL (≈ 25.5 µM) | 0.48 µg/mL (≈ 1.57 µM) | 0.24 µg/mL (≈ 0.783 µM) |
| Cc1nn(CNCc2ccco2)c(=O)n1CCCn1ccnc1 | inactive | inactive | 125 µg/mL (≈ 395 µM) | inactive | inactive | inactive | 500 µg/mL (≈ 1580 µM) | inactive | inactive | 125 µg/mL (≈ 395 µM) |
| Cc1nn(-c2ccc(/N=C/c3c(Cl)cccc3Cl)cc2F)c(=O)n1CCCn1ccnc1 | inactive |  | 3.9 µg/mL (≈ 8.24 µM) | inactive | inactive | inactive | 250 µg/mL (≈ 528 µM) | inactive | inactive | inactive |
| Cc1nn(-c2ccc(N)cc2F)c(=O)n1CCCn1ccnc1 | inactive | inactive | 31.3 µg/mL (≈ 98.9 µM) | inactive | inactive | inactive | 250 µg/mL (≈ 790 µM) | 62.5 µg/mL (≈ 198 µM) | inactive | inactive |
| Cc1n[nH]c(=O)n1/N=C/c1ccncc1 | inactive | inactive | 125 µg/mL (≈ 615 µM) | inactive | inactive | inactive | 125 µg/mL (≈ 615 µM) | 500 µg/mL (≈ 2460 µM) | inactive | inactive |
| Cc1nn(CC(=O)NN)c(=O)n1/N=C/c1ccncc1 | inactive | inactive | 250 µg/mL (≈ 908 µM) | inactive | inactive | inactive | 500 µg/mL (≈ 1820 µM) | inactive | inactive | inactive |
| Cc1nn(CC(=O)NNC(=S)Nc2ccccc2)c(=O)n1CCCn1ccnc1 | inactive | inactive | 31.3 µg/mL (≈ 75.5 µM) | inactive | inactive | inactive | 250 µg/mL (≈ 603 µM) | 62.5 µg/mL (≈ 151 µM) | inactive | inactive |
